We go through 3 compounds from patent US8597640B2, “Over-the-counter vitamin/nutriceutical formulation that provides neuroprotection and maintains or improves cognitive performance in alzheimer's disease and normal aging” (University of Massachusetts Lowell, priority 2007, dated 2013).

For test [1] the following is noted: 12 months, Aisen et al. 2003; cited from earlier work.
For test [2] the following is noted: 12 months, Aisen et al. 2003; cited from earlier work. This is another data set of the same source.
Test [3] deals with presenilin-1 (PS-1) expression. As to the kind of experiment: PS-1 expression by RT-PCR in murine brain. The format is in vivo, mouse. The conditions noted are these: normal and ApoE−/− mice, deficient diet + SAM 100 mg/kg diet, 1 month. As to the method: Adult (9-12 months of age) C57B/6 mice that either express (“normal”) or lack murine ApoE (ApoE−/− mice) received a diet (“AIN-76”; Purina/Mother Hubbard, Inc.) either lacking folate and vitamin E (defined as the “deficient diet”) or supplemented with folic acid (4 mg/kg), and vitamin E (50 IU/kg total diet wet weight) (defined as the “complete diet”). The deficient diet was also supplemented in all cases with iron ([…] total diet) as a pro-oxidant (Mihalick et al., (2004) Neuromol. Med. 4:197-202; Shea and Rogers, (2002) Mol. Brain. Res. 108:1-6). Additional groups of mice maintained on each diet received SAM for the entire month (100 mg/kg diet; Chan et al., (2007) in press; Tchantchou et al., (2005) J. Alzheimers Dis. 7:135-138). […]
To analyze PS-1 expression, total mRNA was extracted from the above homogenate using an RNA isolation kit and stored at −20° C. as described (Chan and Shea, (2006) J. Alzheimers Dis. 9:399-405). Transcription of murine PS-1 was analyzed using a set of primers 5′-[…]-3′ (SEQ ID NO: 1) and 5′-[…]-3′ (SEQ ID NO: 2) respectively, which yielded a product of 557 base pairs (bp) of the murine PS-1 gene. […] Gels were visualized under UV using a Gel Doc 2000 machine from BioRad and analyzed using Quantity One software. […]

The subject of another test is gamma secretase. As to the kind of experiment: Gamma secretase activity in brain homogenates (fluorescent kit). The format is in vivo, mouse. As for the experimental part: (§1) Adult (9-12 months of age) C57B/6 mice that either express (“normal”) or lack murine ApoE (ApoE−/− mice) received a diet (“AIN-76”; Purina/Mother Hubbard, Inc.) either lacking folate and vitamin E (defined as the “deficient diet”) or supplemented with folic acid (4 mg/kg), and vitamin E (50 IU/kg total diet wet weight) (defined as the “complete diet”). The deficient diet was also supplemented in all cases with iron ([…] total diet) as a pro-oxidant (Mihalick et al., (2004) Neuromol. Med. 4:197-202; Shea and Rogers, (2002) Mol. Brain. Res. 108:1-6). Additional groups of mice maintained on each diet received SAM for the entire month (100 mg/kg diet; Chan et al., (2007) in press; Tchantchou et al., (2005) J. Alzheimers Dis. 7:135-138). Following 1 month of maintenance on these diets, mice were sacrificed by cervical dislocation, and the frontal portion of the brain (encompassing cortex and hippocampus) was immediately removed.
Gamma secretase activity was quantified by fluorescent spectroscopy using a gamma secretase activity kit according to the manufacturer's instructions (R&D Systems, Minneapolis, MN), using the APP peptide GVVIATVIV (SEQ ID NO: 5) conjugated to the reporter molecules EDANS and DABCYL and measuring the cleavage-dependent release of signal at 495 nm.

In another test the test system is Abeta. As to the kind of experiment: Abeta levels in murine brain by immunoblot. The format is in vivo, mouse. The note with it: normal and ApoE−/− mice. As to the method: as §1
A portion (40-50 mg) of the above cortical/hippocampal sample was homogenized with 4 volumes of Tris-saline (50 mM Tris HCl, pH 7.4, 150 mM NaCl containing 1 mM EGTA, 0.5 mM diisopropyl fluorophosphate, 0.5 mM phenylmethylsulfonyl fluoride, 1 μg/ml N-p-tosyl-L-lysine chloromethylketone, 0.1 μg/ml pepstatin, 1 μg/ml antipain, and 1 μg/ml leupeptin). The homogenate was centrifuged at […] for 50 minutes at 4° C. […]

In the next test the test system is normal C57B/6 mice. The conditions noted are these: SAM administered in isolation; prior studies (Chan et al. 2007); cited from earlier work.
Test [4] deals with mice lacking one or both murine MTHFR alleles. The note with it: SAM supplementation; Chan et al. (2007) in press; cited from earlier work.
The mark [5] stands for this setting: normal mice, deficient diet + SAM.

“Also recorded” adds a separate entry of the source.

With `CS(=O)(=O)c1ccc(C2=C(c3ccccc3)C(=O)OC2)cc1` [rofecoxib], the “performance on the NPI” value in test [1] was “Neither naproxen nor rofecoxib statistically improved performance on the NPI”. Besides, the “decline in ADCS-ADL” value in test [2] is given as “nor prevented decline in ADCS-ADL”.

With `COc1ccc2cc([C@H](C)C(=O)O)ccc2c1` [naproxen], the “performance on the NPI” value in test [1] is on record as “Neither naproxen nor rofecoxib statistically improved performance on the NPI”. In test [2], the “decline in ADCS-ADL” value is “nor prevented decline in ADCS-ADL”.

In the case of `C[S+](CC[C@H](N)C(=O)O)C[C@H]1O[C@@H](n2cnc3c(N)ncnc32)[C@H](O)[C@@H]1O` (stereo partly shown) [SAM, S-adenosyl methionine], in test [3], the “effect on deficient-diet-induced increase in PS-1 expression” value was “prevented these increases; also recorded: prevented or attenuated these increases”. Also, the “effect on gamma-secretase activity” value with gamma secretase (ApoE−/− mice, SAM supplementation, FIG. 22) is recorded as “statistically (p<0.02) reduced secretase activity”. Also, in the test on gamma secretase (ApoE−/− mice, deficient diet + SAM), the “gamma-secretase activity, less than levels on complete diet” value is recorded as “approx. 40%”. In addition, in the test with gamma secretase (setting [5]), the “effect on deficient-diet-induced increase in gamma-secretase activity” value is on record as “attenuated by half; also recorded: reduced secretase activity in normal mice (not statistically significant)” and the “gamma-secretase activity relative to complete diet” value is given as “approx. 35%”. Also, the “effect on folate-deprivation-induced increase in Abeta levels” value with Abeta (folate-deficient diet + SAM) is on record as “prevented these increases; also recorded: alleviated these increases”. Moreover, the “Abeta levels, SAM in the presence of folate” value in the test on Abeta (folate-supplemented diet + SAM) is listed as “did not alter values obtained with folate alone”. Further, in the test on normal C57B/6 mice, the “performance of normal mice” value is recorded as “did not improve the performance of normal mice”. Moreover, the cognitive performance result in test [4] is given as “improved cognitive performance”.
